Results published in article PMC5394417, “Investigating the molecular mechanism of positive and negative allosteric modulators in the calcium-sensing receptor dimer” (Scientific Reports, 2017).

Target: T1, HA-D190A CaSR mutant (Rattus norvegicus, UniProt P48442, D190A)
T1 construct: mGluR5 signal peptide (N); expressed in transfected cells; host or cells: HEK293T
T1 sequence (P48442 20-1079 D190A): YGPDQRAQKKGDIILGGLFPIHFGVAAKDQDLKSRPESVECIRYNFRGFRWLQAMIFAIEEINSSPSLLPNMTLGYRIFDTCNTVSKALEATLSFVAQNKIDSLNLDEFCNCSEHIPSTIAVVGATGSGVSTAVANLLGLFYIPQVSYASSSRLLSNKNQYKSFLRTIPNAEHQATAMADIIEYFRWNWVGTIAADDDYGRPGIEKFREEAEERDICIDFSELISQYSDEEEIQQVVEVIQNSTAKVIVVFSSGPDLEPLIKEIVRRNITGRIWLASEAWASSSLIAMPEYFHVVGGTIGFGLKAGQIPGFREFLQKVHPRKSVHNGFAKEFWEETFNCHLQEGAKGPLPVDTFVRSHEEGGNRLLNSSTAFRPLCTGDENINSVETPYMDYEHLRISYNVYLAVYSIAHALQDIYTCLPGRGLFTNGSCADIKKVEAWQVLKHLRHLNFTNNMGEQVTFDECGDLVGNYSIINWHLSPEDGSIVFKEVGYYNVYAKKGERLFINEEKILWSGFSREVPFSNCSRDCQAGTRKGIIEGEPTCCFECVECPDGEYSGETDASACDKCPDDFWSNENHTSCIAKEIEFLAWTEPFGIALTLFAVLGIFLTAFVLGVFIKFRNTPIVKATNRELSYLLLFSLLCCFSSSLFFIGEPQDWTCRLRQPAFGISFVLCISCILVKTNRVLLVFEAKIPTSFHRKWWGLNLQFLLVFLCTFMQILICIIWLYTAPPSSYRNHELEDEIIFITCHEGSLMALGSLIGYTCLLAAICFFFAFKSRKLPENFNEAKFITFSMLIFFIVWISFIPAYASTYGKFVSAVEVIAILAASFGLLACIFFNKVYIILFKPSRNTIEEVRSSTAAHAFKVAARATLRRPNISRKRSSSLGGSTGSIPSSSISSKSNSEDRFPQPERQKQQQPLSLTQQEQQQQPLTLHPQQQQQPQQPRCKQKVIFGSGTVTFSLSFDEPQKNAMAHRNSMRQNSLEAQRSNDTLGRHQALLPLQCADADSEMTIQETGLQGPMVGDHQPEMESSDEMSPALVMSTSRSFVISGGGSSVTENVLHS
Assay: IP-One assay, HEK293T transiently transfected
Type: cell-based

[Ca+2] [Ca^2+]
EC50 (Ca^2+ alone): 17.8 mM | Hill coefficient ± S.E.M. (Ca^2+ alone): 3.77 ± 0.39 | pEC50 ± S.E.M. (Ca^2+ alone): 1.75 ± 0.01 | Max ± S.E.M. (normalized to maximum response of WT CaSR): 110 ± 11%
